Measurements from patent US10213416B2, “Substituted benzoxazolone derivatives as acid ceramidase inhibitors, and their use as medicaments” (FONDAZIONE ISTITUTO ITALIANO DI TECNOLOGIA, priority 2014, dated 2019).
“Also recorded” adds a separate entry of the source.

Columns and labels:
[1] = molecular target: human (hAC) acid ceramidase (Homo sapiens (Human), UniProt Q13510); assay: Fluorescent-based in vitro assay of acid ceramidase inhibition; assay type: biochemical; details: human acid ceramidase-enriched lysosomal lysate from HEK293 cells, fluorogenic probe 5 μM, pH 4.5
Excerpt: To evaluate the potency of the compounds towards acid ceramidase, a fluorescence-based in vitro assay previously described in literature (Bedia C et al., ChemBioChem, 2007, 8, 642-648) was implemented and optimized. This assay is based on a “fluorogenic probe” containing a coumarin group and a sphingoid base moiety (see figure below), which is not fluorescent in itself, but upon enzymatic cleavage by acid ceramidase followed by a chemical transformation liberates the fluorescent molecule umbelliferone (7-hydroxychromen-2-one). By quantifying the generation of umbelliferone using a fluorescence plate-reader, the level of enzymatic activity can be measured, whereby IC50 values of compounds that inhibit this activity can be generated.
Lysosomal lysate, enriched with acid ceramidase, was prepared from a cell line stably expressing human acid ceramidase. In the assay, the fluorogenic probe (or substrate) serves as a ceramide-analogue, which is recognized and hydrolyzed at the amide bond by acid ceramidase from the enriched lysate to yield the fatty acid and coumarinic aminodiol.
A lysosomal human acid ceramidase protein preparation was obtained from HEK293 cells stably expressing acid ceramidase suspended in 20 mM Tris HCl (pH 7.5) with 0.32 M sucrose. The cell solution was sonicated and centrifuged at 800×g for 15 min at 4° C. Supernatants were then centrifuged at 12,000×g for 30 min at 4° C. Pellets were re-suspended in phosphate-buffered saline (PBS) pH 7.4 and subjected to two freeze-thaw cycles at −80° C. The suspension was finally centrifuged at 105,000×g for 1 h at 4° C. and protein concentration was measured in the supernatant with bicinchinonic-acid based protein assay.
The assay was performed in Optiplate 96-wells black plates, with each reaction well containing a mixture of 25 mM sodium acetate buffer pH 4.5 and a fixed amount of protein (2 μg) in a volume of 85 μL. After 30 min of pre-incubation with test compounds (diluted 20× from DMSO stock solutions at different concentrations), the fluorogenic probe was added (diluted 20× from EtOH stock solution, final concentration 5 μM). After incubation for 3 h at 37° C., the reactions were stopped with 50 μl of methanol and 100 μl of a 2.5 mg/mL NaIO4 fresh solution in 100 mM Glycine/NaOH pH 10.6. The plate was incubated at 37° C. for 2 h in the dark and fluorescence intensities were measured at excitation/emission wavelengths of 360/446 nm. Negative control samples consisted of the same incubation mixture in the absence of protein extracts. The IC50 values or percent of inhibition, at the indicated concentration, of selected compounds described in the invention are reported in Table 2.

[2] = tested on: levels of MAGs in brain, liver, fat and heart; assay: Levels of monoacylglycerols (MAG) in mouse tissues after systemic administration; assay type: in vivo; details: mice, 10 mg-kg-1 intraperitoneal, 3 hours after injection
Protocol: (§1) Specifically, the compound of Example 1 was tested for its ability to inhibit the hydrolytic degradation of diacylglycerols (DAG) and monoacylglycerols (MAG) in live mice. DAG and MAG hydrolysis is catalyzed by multiple serine lipases, including diacylglycerol lipase (DGL), monoacylglycerol lipase (MGL), hormone-sensitive lipase (HSL), and endothelial lipase. Thus, by monitoring the effects of compound of Example 1 on MAG-hydrolysing activity as well as DAG and MAG levels ex vivo, we gain important information as to the ability of the compound to interfere with those lipases in a physiologically relevant setting.
Specifically, FIG. 1 evidences the effect of Example 1 or vehicle (DMSO) on MGL activity in brain, liver, fat and heart. MAG-hydrolysing activity was measured 3 h after intraperitoneal injection of compound of Example 1 (10 mg-kg-1). Results are expressed as mean±s.e.m. (n=5). […] The levels of MAGs were quantified after 3 hours after intraperitoneal injection of compound of Example 1 (10 mg-kg-1). Specifically, levels of 16:0 MAG, 18:0 MAG, 18:1 MAG, 22:4 MAG, 22:6 MAG were measured in the brain (a); levels of 16:0 MAG, 18:0 MAG, 18:1 MAG, 22:4 MAG were measured in the liver (b), in fat (c) and in the heart (d). Results are expressed as mean±s.e.m. (n=5). […]

[3] = tested on: MAG-hydrolysing enzymes (monoacylglycerol lipase (MGL), hormone-sensitive lipase (HSL), endothelial lipase); assay: MAG-hydrolysing activity ex vivo in mouse tissues after systemic administration (LC-MS based assay); details: mice, 10 mg-kg-1 intraperitoneal, measured 3 h after injection; brain, liver, fat and heart
Protocol: as §1
Specifically, FIG. 1 evidences the effect of Example 1 or vehicle (DMSO) on MGL activity in brain, liver, fat and heart. MAG-hydrolysing activity was measured 3 h after intraperitoneal injection of compound of Example 1 (10 mg-kg-1). Results are expressed as mean±s.e.m. (n=5). […] The levels of MAGs were quantified after 3 hours after intraperitoneal injection of compound of Example 1 (10 mg-kg-1). Specifically, levels of 16:0 MAG, 18:0 MAG, 18:1 MAG, 22:4 MAG, 22:6 MAG were measured in the brain (a); levels of 16:0 MAG, 18:0 MAG, 18:1 MAG, 22:4 MAG were measured in the liver (b), in fat (c) and in the heart (d). Results are expressed as mean±s.e.m. (n=5).
Tissue was homogenized in ice-cold Tris-HCl (50 mM, pH7.5, 10 vol) containing sucrose (0.32 M). […]

Sequence of human (hAC) acid ceramidase (Q13510 143-395): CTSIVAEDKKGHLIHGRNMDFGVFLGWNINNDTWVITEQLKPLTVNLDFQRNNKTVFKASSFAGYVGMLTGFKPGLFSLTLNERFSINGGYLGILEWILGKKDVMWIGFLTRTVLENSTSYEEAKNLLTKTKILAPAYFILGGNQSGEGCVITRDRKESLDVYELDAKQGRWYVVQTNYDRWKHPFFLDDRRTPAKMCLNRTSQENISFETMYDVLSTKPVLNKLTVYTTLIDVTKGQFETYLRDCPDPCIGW
Sequence of human (hAC) acid ceramidase (Q13510 22-142): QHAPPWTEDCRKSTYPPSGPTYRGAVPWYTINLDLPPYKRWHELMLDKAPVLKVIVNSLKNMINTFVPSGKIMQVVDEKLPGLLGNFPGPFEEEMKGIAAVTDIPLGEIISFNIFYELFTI

IC50 [1] | Compound | levels of the most representative MAGs (16:0, 18:0, 18:1, 22:4, 22:6 MAG) [2] | MAG-hydrolysing activity (MGL activity) [3]
75 ± 20 nM | O=C(NCCCCCc1ccccc1)n1c(=O)oc2cc(-c3ccc(F)cc3)ccc21 [Example 1, 6-(4-fluorophenyl)-2-oxo-N-(5-phenylpentyl)-1,3-benzoxazole-3-carboxamide] | lack of effect; also recorded: remained unchanged | lack of effect; also recorded: did not cause inhibition; also recorded: no inhibitory activity
111 ± 30 nM | O=C(NCCCCCCc1ccccc1)n1c(=O)oc2ccc(-c3ccc(C(F)(F)F)cc3)cc21 [Example 3, 2-oxo-N-(6-phenylhexyl)-5-[4-(trifluoromethyl)phenyl]-1,3-benzoxazole-3-carboxamide] |  | 
125 ± 79 nM | O=C(NCCCCCCc1ccccc1)n1c(=O)oc2c(-c3ccc(F)cc3)cccc21 [Example 4, 7-(4-fluorophenyl)-2-oxo-N-(6-phenylhexyl)-1,3-benzoxazole-3-carboxamide] |  | 
26 ± 3 nM | COc1ccc(C(=O)c2ccc3c(c2)oc(=O)n3C(=O)NCCCCCc2ccccc2)cc1 [Example 6, 6-(4-methoxybenzoyl)-2-oxo-N-(5-phenylpentyl)-1,3-benzoxazole-3-carboxamide] |  | 
46 ± 31 nM | COc1ccc(C(=O)c2ccc3oc(=O)n(C(=O)NCCCCCCc4ccccc4)c3c2)cc1 [Example 8, 5-(4-methoxybenzoyl)-2-oxo-N-(6-phenylhexyl)-1,3-benzoxazole-3-carboxamide] |  | 
66 ± 15 nM | O=C(c1ccc(F)cc1)c1cccc2c1oc(=O)n2C(=O)NCCCCCc1ccccc1 [Example 9, 7-(4-fluorobenzoyl)-2-oxo-N-(5-phenylpentyl)-1,3-benzoxazole-3-carboxamide] |  | 
37 nM | O=C(NCCCCCc1ccccc1)n1c(=O)oc2c(-c3ccc(F)cc3)cc(Cl)cc21 [Example 14, 5-chloro-7-(4-fluorophenyl)-2-oxo-N-(5-phenylpentyl)-1,3-benzoxazole-3-carboxamide] |  | 
240 ± 58 nM | O=C(NCCCCSc1ccccc1)n1c(=O)oc2ccc(-c3ccc(F)cc3)cc21 [Example 15, 5-(4-fluorophenyl)-2-oxo-N-(4-phenylsulfanylbutyl)-1,3-benzoxazole-3-carboxamide] |  | 

Compound | IC50 [1] | levels of the most representative MAGs (16:0, 18:0, 18:1, 22:4, 22:6 MAG) [2] | MAG-hydrolysing activity (MGL activity) [3]
CCCCOCCCNC(=O)n1c(=O)oc2cc(-c3ccc(F)cc3)ccc21 [Example 13, N-(3-butoxypropyl)-6-(4-fluorophenyl)-2-oxo-1,3-benzoxazole-3-carboxamide] | 132 ± 5 nM |  | 
